Source: article PMC4523931, “Modulation of Aβ42 in vivo by γ-secretase modulator in primates and humans” (Alzheimer's Research & Therapy, 2015)
Values belong to the molecule of their own block, whether it stands above or below them.

Tests used:
[1] = biological target: T1, γ-secretase (Macaca fascicularis, UniProt Q8HXW5); experiment: Aβ levels in CSF and plasma of conscious cynomolgus monkeys after a single dose; format: in vivo, cynomolgus monkeys (Macaca fascicularis)
T1 construct: γ-secretase complex can be modulated in primates; from tissue; host or cells: living cynomolgus monkeys; Aβ read out in CSF and plasma
Experimental: The effects of drugs on CSF and plasma Aβ ratios in monkeys and plasma Aβ ratios in humans were analyzed by a two-way analysis of variance with a post hoc Bonferroni posttest (GraphPad Prism, La Jolla, CA, USA).
Aβ42, Aβ38 and total Aβ levels in CSF samples were measured. During the observation period, there was variation in Aβ levels in untreated animals (Fig. 2a–c) without a clear diurnal pattern, consistent with the reports from catheter studies in humans. Animals were then treated with drugs in subsequent weeks sequentially. Between each treatment, all animals were rested for 1 week to allow drug washout. […] In light of the CSF results, the effects of GSM-1 were mirrored in plasma. […] This was evident as early as 2 h following drug administration and plateaued starting at 4 h. GSM-1 reduced the ratio of Aβ42/Aβ40 up to 40 % at 6 h after dosing.
Cerebrospinal fluid (CSF) and plasma samples were collected at indicated time points and amyloid beta-peptide (Aβ) levels were measured. Levels of total Aβ (a), Aβ42 (b) and Aβ38 (c) were compared in CSF samples. […] The levels and ratios were normalized to baseline (time 0 or before drug dosing) and shown as percentages of baseline. Seven monkeys were used in the no-treatment group. […] Results are presented as mean ± SEM; *p < 0.05, **p < 0.001. GSM gamma-secretase modulator

[2] = biological target: T1, γ-secretase; experiment: as above; format: in vivo, cynomolgus monkeys (Macaca fascicularis); details: monkey CSF, 30 mg/kg oral
[3] = system: γ-secretase; experiment: GSM activity in vitro: Aβ42 and total Aβ ELISA of conditioned media of CHO cells expressing APP-WT or APP-V717F; format: cell-based, Chinese hamster; details: for ED50 (in vitro GSM activity): Fig. 1
Description: Conditioned media were collected and Aβ42 and total Aβ levels were quantified by ELISA analyses. […] All experiments were repeated at least twice. Results are presented as mean ± range. GSM gamma-secretase modulator

[4] = system: γ-secretase; design: method as in PMID 17962197; details: APP transgenic mice, cited from earlier work
[5] = system: γ-secretase; design: method as in PMID 11700559, PMID 12897211; details: Tg2576 mice, 50 mg/kg for 3 days; cited from earlier work
[6] = mild to moderate AD, 400 mg twice daily, 1 year; cited from earlier work
[7] = Plasma drug concentration in mice treated with ibuprofen for 3 days (literature); format: in vivo; details: Tg2576 (APP transgenic line), mouse, 50 mg/kg daily for 3 days, from 43 μM and ~5.5 % unbound, read-out: estimated unbound concentration in plasma
[8] = in vivo; details: female, cynomolgus monkey, po, 100 mg/kg
[9] = clinical; details: human
[10] = design: method as in PMID 12897211; details: mice, 50 mg/kg daily for 3 days, 2 h after the last dose; cited from earlier work
[11] = monkey, 100 mg/kg oral, first sampled time point, all but one animal
[12] = Adverse events in the human study; details: healthy humans, 800 mg IV single dose or placebo
[13] = design: method as in PMID 17650315, PMID 20009055; details: late-phase human clinical trial; cited from earlier work

- time of maximum reduction in CSF ([1]; monkey CSF, 30 mg/kg oral): 8 to 12 h
- effect on CSF total Aβ levels ([1]; monkey CSF, 30 mg/kg oral single dose): did not change
- maximal increase in CSF Aβ38 levels ([1]; monkey CSF, 30 mg/kg oral single dose, 8 h postdosing): ~ 90%
- maximal reduction in CSF Aβ42 levels ([1]; monkey CSF, 30 mg/kg oral single dose, 12 h postdosing): ~ 32%
- maximal increase of the ratio of Aβ38 to total Aβ in CSF ([1]; monkey CSF, 30 mg/kg oral, after 8 h, p < 0.05): 70%
- ratio of Aβ42 to total Aβ in CSF, relative to baseline ([1]; monkey CSF, single dose 30 mg/kg, baseline to postdosing): 65%
- reduction of the ratio of Aβ42/Aβ40 in plasma ([1]; monkey plasma, 30 mg/kg oral, 6 h after dosing): up to 40%
- time at which the decrease of plasma Aβ42/Aβ40 ratio was first evident ([1]; monkey plasma, 30 mg/kg oral, plateaued starting at 4 h): 2 h
- ratio of Aβ42 to Aβ40 in plasma, relative to baseline ([1]; monkey plasma, single dose 30 mg/kg, baseline to postdosing): 60%
- effect on ratio of Aβ42/Aβ40 in plasma ([1]; monkey plasma, single dose, Fig. 2f): markedly decreased
- CSF Aβ38 level (mean ± SD) ([2]; 8 h postdosing, baseline 1033.3 ± 300.0): 1954.8 ± 698.6 pg/mL
- CSF Aβ42 level (mean ± SD) ([2]; 12 h postdosing, baseline 267.1 ± 60.0): 183.5 ± 96.1 pg/mL
SMILES: CC(C)CC[C@H](c1ccc(Cl)cc1)N1CC[C@@H](CC(=O)O)C[C@H]1c1ccc(C(F)(F)F)cc1 [GSM-1]
- effect on ratio of Aβ42 to total Aβ ([3]; CHO APP-WT or APP-V717F, 24 h, dose-dependent, p < 0.001): significantly reduced
- concentration giving 50 % reduction of the ratio of Aβ42 to total Aβ ([3]; CHO cells expressing APP-WT or APP-V717F, 24 h incubation, ELISA): 0.2 µM
- ED50 (in vitro GSM activity) [3]: approximately 200 nM
- lowering of brain Aβ42 ([4]; single dose 3 mg/kg): 25%
- reduction of brain Aβ42 ([4]; single dose 30 mg/kg): 70%
- effect on Aβ38 levels ([4]; single dose): concomitantly increased

- concentration at 3 days [7]: ~2370 nM
- AUC(0-t) ([8]; CSF): 36.4 ± 11.8 µM·h
- AUC(0-t) ([8]; plasma): 3740 ± 924 µM·h
- AUC(0-t) ([9]; both, in vivo, iv, 800 mg): 831 ± 156 µM·h
- time of return of plasma levels to baseline ([9]; 800 mg IV): ≤ 8 h
- time of highest plasma levels ([9]; 800 mg IV, first time sampled): 1 h
- time of highest concentrations in plasma and CSF [11]: 2 h
SMILES: CC(C)Cc1ccc(C(C)C(=O)O)cc1 (centres unmarked) [ibuprofen]
- effect on Aβ40 levels (reduced or not) [5]: not
- effect on Aβ42 levels [5]: significantly reduced
- clinical benefit [6]: no benefit
- ED50 (in vitro GSM activity) [3]: 250 to 500 µM
- average plasma drug concentration [10]: 43 µM
- adverse events during the study period [12]: no adverse events were observed

SMILES: C[C@@H](C(=O)O)c1ccc(-c2ccccc2)c(F)c1 [tarenflurbil]
- clinical efficacy [13]: not to be effective
